Data published in article PMC9234021 (Cell Reports, 2022).
Where two headings read alike, the source gives them in different places. No end group written: not given here.

Tests used:
SARS-CoV-2 [1] = type: in vivo, K18-hACE2 C57BL/6J mice; conditions: JQ1 50 mg/kg i.p. or ABBV-744 20 mg/kg oral once daily, n = 5 per group
SARS-CoV-2 [2] = type: cell-based, SARS-CoV-2 isolate USA-WA1/2020; conditions: p = 0.0004, three independent experiments in triplicate
SARS-CoV-2 [3] = test system: SARS-CoV-2; parameters: species or system K18-hACE2 C57BL/6J mice; conditions: mouse, in vivo
SARS-CoV-2 [4] = type: cell-based, SARS-CoV-2 isolate USA-WA1/2020; conditions: p = 0.0001, three independent experiments in duplicate
[5] = test system: lungs of SARS-CoV-2 infected mice; parameters: species or system K18-hACE2 C57BL/6J mice; conditions: mouse, in vivo
BET proteins = conditions: cited from earlier work
[6] = identical treatment with JQ1 or ABBV-744, H&E
[7] = test system: SARS-CoV-2 nucleocapsid (N) protein; type: in vivo, K18-hACE2 C57BL/6J mice; conditions: JQ1 50 mg/kg i.p. or ABBV-744 20 mg/kg oral once daily
Calu3 cells [8] = type: cell-based
influenza A = conditions: cited from earlier work
A549 cells = assay: qRT-PCR of poly; type: cell-based
A549-ACE2 cells = assay: Cell viability; type: cell-based; conditions: A549-ACE2, 500 nM, 48 hours, CellTiter-Glo, relative to DMSO
Calu3 cells [9] = assay: Cell viability; type: cell-based; conditions: Calu3, 500 nM, 48 hours, CellTiter-Glo, relative to DMSO
SARS-CoV-2 [10] = conditions: mouse, in vivo; cited from earlier work
[11] = target: BRD4 second bromodomain BD2 (349-460), His-SUMO tag removed (UniProt O60885 349-460, 15N-labeled); assay: NMR titration
[12] = pan-BET inhibitors, no reference given

CCNC(=O)c1cc2c(-c3cc(C(C)(C)O)ccc3Oc3c(C)cc(F)cc3C)cn(C)c(=O)c2[nH]1 [ABBV-744, N-Ethyl-4-[2-(4-fluoro-2,6-dimethyl-phenoxy)-5-(1-hydroxy-1-methyl-ethyl)phenyl]-6-methyl-7-oxo-1H-pyrrolo[2,3-c]pyridine-2-carboxamide]
increase in infectious particle production in lungs (SARS-CoV-2 [1]): 37 fold | increase in SARS-CoV-2 viral RNA (SARS-CoV-2 [2]): 3 fold | immune cell infiltration in the lungs (SARS-CoV-2 [3]): decrease in immune cell infiltration | increase in infectious particle production (SARS-CoV-2 [4]): 3 fold | CCL2 expression in lungs [5]: significant decreases | CXCL9 expression in lungs [5]: significant decreases | CXCL10 expression in lungs [5]: significant decreases | IL1a expression in lungs [5]: significant decreases | IL6 expression in lungs [5]: significant decreases | ISG15 expression in lungs [5]: significant decreases | RIG-I expression in lungs [5]: significant decreases | bromodomain specificity (BET proteins; ABBV-744, ref Sheppard et al., 2020): specifically targets BD2-mediated interactions | lung inflammation in healthy, uninfected mice [6]: did not experience lung inflammation | immunohistochemical staining for SARS-CoV-2 N protein in lungs [7]: increased

Cc1sc2c(c1C)C(c1ccc(Cl)cc1)=N[C@@H](CC(=O)OC(C)(C)C)c1nnc(C)n1-2 [JQ1]
increase in infectious particle production in lungs (SARS-CoV-2 [1]): 18 fold | IFNB1 expression (Calu3 cells [8]): suppressed | IL6 expression (Calu3 cells [8]): suppressed | ISG15 expression (Calu3 cells [8]): suppressed | transcriptional activation of the antiviral response (influenza A): attenuates transcriptional activation of the antiviral response | immune cell infiltration in the lungs (SARS-CoV-2 [3]): decrease in immune cell infiltration | CCL2 expression in lungs [5]: significant decreases | CXCL9 expression in lungs [5]: significant decreases | CXCL10 expression in lungs [5]: significant decreases | IL1a expression in lungs [5]: significant decreases | IL6 expression in lungs [5]: significant decreases | ISG15 expression in lungs [5]: significant decreases | RIG-I expression in lungs [5]: significant decreases | bromodomain specificity (BET proteins; [12]): disrupt BD1- and BD2-mediated interactions | lung inflammation in healthy, uninfected mice [6]: did not experience lung inflammation | poly(I:C)-mediated induction of IFNB1 (A549 cells): dampened | poly(I:C)-mediated induction of IL6 (A549 cells): dampened | poly(I:C)-mediated induction of ISG15 (A549 cells): dampened | immunohistochemical staining for SARS-CoV-2 N protein in lungs [7]: increased

Cc1sc2c(c1C)C(c1ccc(Cl)cc1)=N[C@@H](CC(=O)NCCCCCCCCNC(=O)COc1cccc3c1C(=O)N(C1CCC(=O)NC1=O)C3=O)c1nnc(C)n1-2 (stereo partly shown) [dBET6]
IFNB1 expression (Calu3 cells [8]): suppressed | IL6 expression (Calu3 cells [8]): suppressed | ISG15 expression (Calu3 cells [8]): suppressed | bromodomain specificity (BET proteins; [12]): disrupt BD1- and BD2-mediated interactions | poly(I:C)-mediated induction of IFNB1 (A549 cells): dampened | poly(I:C)-mediated induction of IL6 (A549 cells): dampened | poly(I:C)-mediated induction of ISG15 (A549 cells): dampened | viability (A549-ACE2 cells): non-toxic | viability (Calu3 cells [9]): non-toxic

Cc1noc(C)c1-c1ccc2[nH]c(=O)n3c2c1OC[C@@H]3c1ccccn1 [INCB054329]
lung pathology (SARS-CoV-2 [10]): severe lung pathology | viral RNA in the lungs (SARS-CoV-2 [10]): significant viral RNA in the lungs

B1: SARS-CoV-2 E peptide, residues 58-68, acetylated at K63 (peptide)
peptide: VYSRVK(Ac)NLNSS
Kd [11]: 170 ± 60 µM

B2: SARS-CoV-2 E peptide, residues 48-58, acetylated at K53 (peptide)
peptide: NVSLVK(Ac)PSFYV
Kd [11]: 610 ± 160 µM
